The results in this text go back to ChEMBL document CHEMBL3886918, “Pyrimidine compounds useful in the treatment of diseases mediated by IKKE and/or TBK1 mechanisms” (2016).

Broadly, the IC50 is the point on the concentration scale where inhibition reaches its midpoint.

Each structure is given as a SMILES string. A value given as a limit tells only on which side of the number the result lay.

This experiment addresses T1, Serine/threonine-protein kinase TBK1 (Homo sapiens, UniProt Q9UHD2).
T1 sequence (Q9UHD2 whole entry): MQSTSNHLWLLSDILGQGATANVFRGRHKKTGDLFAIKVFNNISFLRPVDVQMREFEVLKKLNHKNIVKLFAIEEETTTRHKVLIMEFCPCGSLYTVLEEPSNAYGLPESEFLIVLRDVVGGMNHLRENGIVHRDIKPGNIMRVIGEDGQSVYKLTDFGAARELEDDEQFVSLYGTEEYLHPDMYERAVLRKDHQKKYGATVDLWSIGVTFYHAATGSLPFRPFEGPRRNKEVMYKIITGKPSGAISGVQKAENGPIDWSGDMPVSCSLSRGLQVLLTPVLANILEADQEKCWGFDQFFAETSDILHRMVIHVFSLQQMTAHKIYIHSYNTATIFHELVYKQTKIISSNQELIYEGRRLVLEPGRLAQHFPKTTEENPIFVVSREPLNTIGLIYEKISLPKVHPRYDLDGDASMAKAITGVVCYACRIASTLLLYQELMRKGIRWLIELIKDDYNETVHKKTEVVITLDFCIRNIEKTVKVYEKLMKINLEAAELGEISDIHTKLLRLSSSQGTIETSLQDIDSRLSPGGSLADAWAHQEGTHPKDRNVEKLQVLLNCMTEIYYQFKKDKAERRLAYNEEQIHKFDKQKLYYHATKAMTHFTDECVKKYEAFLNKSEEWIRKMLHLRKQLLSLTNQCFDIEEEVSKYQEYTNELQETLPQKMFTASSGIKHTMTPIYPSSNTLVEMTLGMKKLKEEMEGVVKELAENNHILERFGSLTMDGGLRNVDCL
The experiment in a line: Time-Resolved Fluorescence-based Lanthascreen Assay: Kinase inhibition assays (10 μL) were performed at 20° C. in 384-well plate format. Compound IC50 values were determined at the apparent Km for ATP (20 μM) based on a radiometric assay (Invitrogen) using 8 or 10 point curves in duplicate. The final reaction conditions contained 400 nM fluorescein-IkBα substrate ([…]), 20 μM ATP, 2 nM or 8 nM IKKε or TBK1 kinase respectively, and 3% DMSO in kinase assay buffer consisting of 50 mM HEPES (pH 7.5), 10 mM MgCl, 1 mM EGTA, 0.01% Brij-35.Compound dilutions were prepared from 10 mM DMSO stocks by dilution into DMSO. Compound dilution series were further diluted in kinase assay buffer to give a 12% DMSO stock, the final concentration in the assay being 3% DMSO.The kinase phosphorylation assay was initiated by the addition of the kinase and the reaction was allowed to proceed for 1 h or 2.5 h for IKKε and TBK-1 kinase respectively. On the technique in general: TR-FRET usually uses a lanthanide donor and a delayed reading to cut background.
On to `CC(=O)NC1CCN(c2ncc(-c3ccnc(Nc4ccc(CN5CCOCC5)nc4)n3)cc2C#N)C1` (stereo not given), for which the IC50 was less than 1000 nM.

For `N#Cc1cc(-c2ccnc(Nc3ccc(CN4C(=O)OCC4CO)nc3)n2)cnc1N1CC[C@H](F)C1` (stereo not given in full), the IC50 is less than 30 nM.

As for `N#Cc1cc(-c2ccnc(Nc3cccc(C(=O)N4CCNCC4)c3)n2)cnc1N1CC[C@H](F)C1`, the IC50 was less than 30 nM.

Regarding `N#Cc1cc(-c2nc(Nc3ccnc(NC(=O)CN4CCOCC4)c3)ncc2F)cnc1N1CC[C@H](F)C1`, the IC50 was less than 30 nM.

On to `N#Cc1cc(-c2ccnc(Nc3ccc(N)nc3)n2)cnc1N1CC[C@H](F)C1`, for which the IC50 was less than 30 nM.
